Active and inactive are the calls of the source.
Assays:
[1] = viability loss in Vero cells – cytotoxicity control for Vif-APOBEC3G degradation inhibitor project, dose response (AID 1117358); format: functional; details: Vero
[2] = target: DNA dC->dU-editing enzyme APOBEC-3A (Homo sapiens, UniProt P31941); assay: Dose Response confirmation of small molecule APOBEC3A DNA Deaminase Inhibitors via a fluorescence-based single-stranded DNA deaminase assay. [Related pubchem assays (depositor defined):AID493011, AID493024]; format: functional
Protein Tat = Protein Tat (Human immunodeficiency virus type 1 group M subtype B (isolate HXB2)(HIV-1), UniProt P04608); format: functional;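 also: tat binding to TAR RNA read out by fluorescence polarization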
[3] = target: DNA dC->dU-editing enzyme APOBEC-3G (Homo sapiens, UniProt Q9HC16); format: functional;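 also: Dose-response counterscreen measuring inhibition of APOBEC3G DNA deaminase activity, run while confirming APOBEC3A inhibitors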
[4] = target: T1, Carboxy-terminal domain RNA polymerase II polypeptide A small phosphatase 1 (Homo sapiens, UniProt Q9GZU7); assay: CTDSP1 inhibitors, concentration-response, biochemical, absorbance readout, ultra-high-throughput screen actives (AID 540297); format: functional
T1 sequence (Q9GZU7 whole entry): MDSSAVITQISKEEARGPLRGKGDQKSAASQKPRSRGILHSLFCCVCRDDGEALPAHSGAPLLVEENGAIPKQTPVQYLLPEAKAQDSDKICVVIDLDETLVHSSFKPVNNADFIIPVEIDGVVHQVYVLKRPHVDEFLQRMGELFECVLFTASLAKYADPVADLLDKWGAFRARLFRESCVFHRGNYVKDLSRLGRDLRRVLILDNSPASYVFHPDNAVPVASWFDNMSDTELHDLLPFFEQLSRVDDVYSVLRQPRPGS

HT-1080 = assay: HT1080 cell viability loss – fluorescence readout (AID 620); format: functional, cell-based; details: Homo sapiens
[5] = target: E3 ubiquitin-protein ligase Mdm2 (Homo sapiens, UniProt Q00987); assay: MDM2-luc reporter signal enhancers, multi-concentration potency testing, MDM2 ubiquitin-protein ligase inhibitor program, whole-cell format, luminescence detection, 384-well microplate (AID 1394); format: functional;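 also: MDM2 E3 inhibitors raise luminescence so EC50 is for signal enhancement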
[6] = viability inhibitors of stage V gametocytes – luminescence, dose response (AID 1117278); format: functional, cell-based;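 also: gametocytes exposed to compound for 24 hours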
[7] = viability loss in human Jurkat cells – cell-based, luminescence, cytotoxicity control for P. falciparum gametocyte viability project, dose response (AID 1117277); format: functional;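 also: potency reflects loss of cellular ATP meaning fewer viable cells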
[8] = target: DNA damage-inducible transcript 3 protein (Mus musculus, UniProt P35639); format: functional, Cricetulus griseus
[9] = HIV-1 Vif–A3G interaction blockers – biochemical, TR-FRET, GST-Vif 1-94, biotin-A3G peptide, dose response retest, primary screen (AID 1117319); format: functional;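 also: TR-FRET signal of purified GST-Vif binding a biotinylated A3G peptide; inhibitors lower the FRET signal by blocking Vif and A3G binding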
[10] = viability of uninfected HEp-2 cells – cell-based, HTS, cytotoxicity control for RSV inhibitor project, dose response (AID 2410); format: functional; details: human respiratory syncytial virus
Vero = assay: cells; format: functional; details: Chlorocebus sabaeus
[11] = target: T2, Nuclear receptor subfamily 0 group B member 1 (Homo sapiens, UniProt P51843); format: functional, cell-based;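 also: HEK293T cells transfected with SF-1 and DAX-1 plus StAR promoter luciferase reporter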
T2 sequence (P51843 whole entry): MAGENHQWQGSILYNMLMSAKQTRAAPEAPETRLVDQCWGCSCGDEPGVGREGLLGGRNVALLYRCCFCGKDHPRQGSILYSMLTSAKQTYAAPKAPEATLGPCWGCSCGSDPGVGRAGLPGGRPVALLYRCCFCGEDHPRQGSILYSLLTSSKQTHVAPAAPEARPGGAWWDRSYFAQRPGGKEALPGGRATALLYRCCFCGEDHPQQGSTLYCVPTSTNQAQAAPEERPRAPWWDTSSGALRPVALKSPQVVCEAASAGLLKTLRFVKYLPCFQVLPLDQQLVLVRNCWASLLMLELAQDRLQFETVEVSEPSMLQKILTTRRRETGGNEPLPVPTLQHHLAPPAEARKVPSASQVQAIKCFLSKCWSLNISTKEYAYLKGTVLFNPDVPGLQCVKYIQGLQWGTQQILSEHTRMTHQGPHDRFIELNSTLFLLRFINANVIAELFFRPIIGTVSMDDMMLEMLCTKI

[12] = Luminescence Cell-Based Dose Retest to Confirm Inhibitors of Cancer Stem Cells. [Related pubchem assays (depositor defined):AID2717, AID2721]; format: functional; details: Homo sapiens
[13] = decrease of insulin promoter-GFP reporter – imaging, high-content screening, mouse beta cells (AID 1628); format: functional; details: MIN6
[14] = MIN6 cell viability loss – mouse insulinoma, cytotoxicity control, dose response (AID 2122); format: functional;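 also: confirmatory high-throughput counterscreen run to flag cytotoxic compounds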
cells [15] = format: functional, cell-based
[16] = target: T3, Sentrin-specific protease 8 (Homo sapiens, UniProt Q96LD8); format: functional
T3 sequence (Q96LD8 whole entry): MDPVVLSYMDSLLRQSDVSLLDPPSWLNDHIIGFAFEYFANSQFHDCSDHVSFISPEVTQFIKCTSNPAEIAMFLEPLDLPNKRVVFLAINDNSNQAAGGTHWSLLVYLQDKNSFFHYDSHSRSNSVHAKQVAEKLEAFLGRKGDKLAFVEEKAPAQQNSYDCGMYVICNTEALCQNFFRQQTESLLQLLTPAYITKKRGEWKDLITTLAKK

[17] = Trypanosoma cruzi growth suppression in host cells – NIH3T3 host cells, beta-gal luminescence, confirmation (AID 2044); format: functional, cell-based;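 also: intracellular parasites grown in NIH/3T3 mouse fibroblasts as host cells; luminescent beta-galactosidase reporter signal from transgenic T. cruzi replicating inside host cells; inhibitors lower the luminescence signal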
cells [18] = assay: cells
[19] = NIH3T3 cell viability loss – ATP luminescence, mouse fibroblasts, counter-screen, dose response (AID 2010); format: functional, cell-based;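 also: cells exposed to compound for about 90 hours before reading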
[20] = target: T3, Sentrin-specific protease 8; format: functional; remark: listed apart in the source
[21] = Late-stage results from the probe development effort to identify antagonists of arginine vasopressin receptor 1a (AVPR1a): fluorescence-based cell-based dose response AVPR1a inhibition assay.; format: functional
[22] = Late-stage results from the probe development effort to identify antagonists of arginine vasopressin receptor 1a (AVPR1a): fluorescence-based cell-based dose response OXTR inhibition counterscreen assay.; format: functional
Vasopressin V2 receptor = Vasopressin V2 receptor (Homo sapiens, UniProt P30518); assay: Late-stage results from the probe development effort to identify antagonists of arginine vasopressin receptor 1a (AVPR1a): fluorescence-based cell-based dose response AVPR2 inhibition counterscreen assay.; format: functional
Vasopressin V1b receptor = Vasopressin V1b receptor (Homo sapiens, UniProt P47901); assay: Late-stage results from the probe development effort to identify antagonists of arginine vasopressin receptor 1a (AVPR1a): fluorescence-based cell-based dose response AVPR1b inhibition counterscreen assay.; format: functional
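For AC50 in this document: cells exposed to compound for roughly 70 hours or longer before luminescence read.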

Sequence of E3 ubiquitin-protein ligase Mdm2 (Q00987 whole entry): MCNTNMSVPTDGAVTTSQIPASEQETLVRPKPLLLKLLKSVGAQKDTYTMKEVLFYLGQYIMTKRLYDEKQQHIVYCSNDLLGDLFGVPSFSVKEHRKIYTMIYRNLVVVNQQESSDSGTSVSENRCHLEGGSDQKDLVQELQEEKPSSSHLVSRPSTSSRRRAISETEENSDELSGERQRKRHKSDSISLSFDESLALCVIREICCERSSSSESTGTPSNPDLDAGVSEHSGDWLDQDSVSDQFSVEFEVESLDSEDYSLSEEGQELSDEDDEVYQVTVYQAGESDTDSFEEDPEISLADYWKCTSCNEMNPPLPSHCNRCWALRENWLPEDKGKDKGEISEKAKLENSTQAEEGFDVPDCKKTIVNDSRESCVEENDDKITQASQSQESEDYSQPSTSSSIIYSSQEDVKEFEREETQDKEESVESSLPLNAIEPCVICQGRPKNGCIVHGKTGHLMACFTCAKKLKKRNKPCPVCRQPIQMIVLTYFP
Sequence of Vasopressin V1b receptor (P47901 whole entry): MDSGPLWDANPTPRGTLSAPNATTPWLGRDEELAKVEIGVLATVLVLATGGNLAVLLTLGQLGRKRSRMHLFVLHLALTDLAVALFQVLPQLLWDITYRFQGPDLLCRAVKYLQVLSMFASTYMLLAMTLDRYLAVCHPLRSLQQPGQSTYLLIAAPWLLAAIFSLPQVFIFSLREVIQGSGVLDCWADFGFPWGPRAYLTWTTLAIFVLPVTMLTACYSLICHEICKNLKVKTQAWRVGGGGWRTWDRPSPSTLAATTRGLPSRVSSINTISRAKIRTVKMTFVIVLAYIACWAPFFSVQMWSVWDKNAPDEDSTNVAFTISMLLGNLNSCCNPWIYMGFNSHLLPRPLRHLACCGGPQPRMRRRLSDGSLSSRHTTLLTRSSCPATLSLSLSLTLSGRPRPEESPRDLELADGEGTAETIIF
Sequence of DNA dC->dU-editing enzyme APOBEC-3G (Q9HC16 whole entry, the tested form may be a part): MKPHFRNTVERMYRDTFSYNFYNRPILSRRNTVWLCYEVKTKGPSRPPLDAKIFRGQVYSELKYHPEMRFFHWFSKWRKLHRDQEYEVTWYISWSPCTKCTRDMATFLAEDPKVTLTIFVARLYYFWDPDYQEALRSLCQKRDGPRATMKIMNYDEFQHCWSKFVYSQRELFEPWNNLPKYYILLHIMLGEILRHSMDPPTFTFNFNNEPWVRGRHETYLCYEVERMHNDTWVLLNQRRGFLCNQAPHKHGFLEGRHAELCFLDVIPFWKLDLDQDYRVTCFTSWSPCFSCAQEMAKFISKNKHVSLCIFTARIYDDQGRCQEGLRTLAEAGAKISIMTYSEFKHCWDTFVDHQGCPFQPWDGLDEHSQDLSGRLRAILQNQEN
Sequence of DNA dC->dU-editing enzyme APOBEC-3A (P31941 whole entry): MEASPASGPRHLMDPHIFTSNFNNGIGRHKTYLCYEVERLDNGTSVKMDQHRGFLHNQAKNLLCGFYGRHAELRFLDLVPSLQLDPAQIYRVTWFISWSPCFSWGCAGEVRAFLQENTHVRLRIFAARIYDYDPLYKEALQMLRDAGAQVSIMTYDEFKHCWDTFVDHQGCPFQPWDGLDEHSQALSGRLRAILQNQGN
Sequence of Protein Tat (P04608 whole entry): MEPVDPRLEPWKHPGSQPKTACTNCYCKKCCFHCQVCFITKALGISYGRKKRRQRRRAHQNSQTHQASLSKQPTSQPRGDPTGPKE
Sequence of DNA damage-inducible transcript 3 protein (P35639 whole entry): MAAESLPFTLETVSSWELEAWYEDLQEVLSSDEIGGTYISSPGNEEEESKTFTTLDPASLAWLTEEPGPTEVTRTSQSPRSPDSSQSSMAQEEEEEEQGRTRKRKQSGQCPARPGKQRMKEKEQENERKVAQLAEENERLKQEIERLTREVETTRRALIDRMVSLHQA
Sequence of Vasopressin V2 receptor (P30518 whole entry): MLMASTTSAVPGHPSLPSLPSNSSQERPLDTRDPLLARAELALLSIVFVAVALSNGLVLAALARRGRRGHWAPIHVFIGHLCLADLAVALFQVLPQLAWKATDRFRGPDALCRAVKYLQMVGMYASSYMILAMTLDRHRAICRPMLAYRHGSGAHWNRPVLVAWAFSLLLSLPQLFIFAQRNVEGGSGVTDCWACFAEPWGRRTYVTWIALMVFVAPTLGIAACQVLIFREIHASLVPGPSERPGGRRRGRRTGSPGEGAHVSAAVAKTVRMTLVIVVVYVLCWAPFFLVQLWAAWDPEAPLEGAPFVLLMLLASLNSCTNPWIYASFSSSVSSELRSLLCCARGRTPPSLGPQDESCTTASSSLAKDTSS

In the case of `Cc1cc(Cl)c(S(=O)(=O)NCC2CCCO2)cc1OCC(=O)NC1CCCCC1` (stereo unspecified), the CC50 [1] is reported as > 40 µM (active).

With `CCOC(=O)C1=C(COC(=O)/C=C/c2ccco2)NC(=O)NC1C` (stereo unspecified) the IC50 [2] was 15.9 µM (active), the IC50 (Protein Tat) was > 100 µM (active) and the IC50 [3] was 28.4 µM (active). The IC50 [4] was 4.25 µM (active).

With `Cc1ccc(NC2=Nc3ccccc3CC2)cc1` the EC50 (HT-1080) was > 50 µM (not active).

With `CC1=C(C(=O)NC(C)CCc2ccccc2)C2(CCC(C)CC2)OC1=O` (stereo unspecified) the EC50 [5] was 78.3 µM (not active).

With `COc1ccc(CCN(C)CCCN2CC(c3ccccc3)CC2=O)cc1OC` (stereo unspecified) the IC50 [6] was > 109 µM (inactive) and the IC50 [7] was > 83.3 µM (inactive).

With `Cc1nc2nc(C)c(CCC(=O)NC3CCCCC3)c(C)n2n1` the IC50 [6] was > 109 µM (inactive) and the IC50 [7] was > 83.4 µM (inactive).

In the case of `Oc1ccc(Cl)cc1-c1cc(-c2ccccc2)[nH]n1`, the CC50 [1] is reported as > 40 µM (active), the “Absolute IC50 (CHOP)” value [8] is reported as 10 µM and the IC50 [9] is reported as > 100 µM (active).

In the case of `COc1ccc(/C=C/C(=O)Nc2ccc(C34CC5CC(CC(O)(C5)C3)C4)cc2)cc1OC`, the CC50 [10] is reported as 1.48 µM (active), the CC50 (Vero) is reported as 20.9 µM (active) and the IC50 [11] is reported as > 0.834 µM (active). For the same molecule, the AC50 [12] was 0.647 µM (active), the IC50 [13] was 2.17 µM (active) and the IC50 [14] was 5.21 µM (active). For the same molecule, the EC50 [5] was 3.12 µM (not active) and the IC50 (cells [15]) was > 67.5 µM (inactive).

In the case of `CN(C)CCN(C(=O)c1ccc(N2C(=O)CCC2=O)cc1)c1nc2cc3c(cc2s1)OCO3`, the IC50 [16] is reported as 24.4 µM (active), the EC50 [17] is reported as < 0.1 µM (active) and the EC50 (cells [18]) is reported as 0.102 µM (active). The EC50 [19] was > 60 µM (not active) and the IC50 [20] was 33.5 µM (active).

For `Cc1cccc(N2CCC(C(=O)N(CC3CC3)c3ccc(Cl)cc3)CC2)n1`, the IC50 [21] was 0.0248 µM (active), the IC50 [22] was 5.1 µM (active) and the IC50 (Vasopressin V2 receptor) was 6.1 µM (active). The IC50 (Vasopressin V1b receptor) was 17.6 µM (inactive).
